{
  "source": "patent US20250177412A1",
  "about": "“SMALL-MOLECULE INHIBITORS TARGETING THE BOB1/OCT1 INTERFACE” (NANTES UNIVERSITE, priority 2022, published 2025)",
  "tested_on": "memory B cells",
  "experiment": "In vitro plasmablast differentiation, two-phase human B cell model, flow cytometry",
  "type": "cell-based",
  "settings": "for expression of CD20 marker (CD20+ B cells): day 7 (FIG. 3O-P); for frequency of CD27+ cells: day 4",
  "source_text": "FIGS. 3A-Y are a combination of graphs and FACS plots showing that targeting BOB1-OCT(s) complex by compound 005 dose-dependently impairs B cells proliferation, activation and differentiation into plasmablasts in the human B cell differentiation in vitro model. Enriched memory B cells from the blood of healthy subjects (n=15) were stimulated at day 0 with anti-F(ab′)2, CD40L, CpG, and IL-2 for four days (activation phase). On day 4, cells were washed and stimulated with IL-2, IL-4, and IL-10 for additional three days (differentiation phase). Compound 005 was added daily to the cultures to a final concentration of 0 (DMSO), 5, 10, 15, 20 μM, as indicated. […] FIG. 3C-H show corresponding summarized data for the frequency (FIG. 3C, E and G) and relative mean fluorescence intensity (MFI; FIG. 3D, F and H) of CD27^+ (FIG. 3C-D), CD38^+ (FIG. 3E-F), and CD20^+ (FIG. 3G-H) B cells analyzed at Day 4. […] FIG. 3K-P show corresponding summarized data for the frequency (Fig. K, M and O) and relative mean fluorescence intensity (MFI; Fig. L, N and P) of CD27^+ (FIG. 3K-L), CD38^+ (FIG. 3M-N), and CD20^+ (FIG. 3O-P) B cells analyzed at Day 7. […] FIG. 3R-Y show the effect of compound 005 on the levels of IgG1 (FIG. 3R), IgG2 (FIG. 3S), IgG3 (FIG. 3T), IgG4 (FIG. 3U), IgA (FIG. 3V), IgE (FIG. 3W), IgM (FIG. 3X) and IgD (FIG. 3Y) immunoglobulin isotypes production at Day 7. Error bars are mean±SD. P values were determined with one-way ANOVA with Geisser-Greenhouse's multiple comparisons test.\nBlood samples were obtained from healthy volunteers provided by Sanquin Blood Supply Foundation (Amsterdam, the Netherlands) or from Etablissement Français du Sang (Nantes, France) after written consent was obtained. Peripheral blood mononuclear cells (PBMCs) were isolated through Ficoll-Paque gradient centrifugation on Lymphoprep (Nycomed). Total B cells were isolated from freshly purified PBMCs by negative selection (B cell Isolation Kit II; Miltenyi Biotech, 130-091-151) on magnetic columns using autoMACS Pro Separator according to the manufacturer's instructions. Subsequently, memory and naïve B cells were isolated from negatively-selected CD19^+ B cells by positive and negative selection with CD27 MicroBeads (Miltenyi Biotech, 130-051-601) using autoMACS Pro Separator according to the manufacturer's instructions. Ultimately, purity of the MACS-isolated CD19^+ B cells, CD19^+CD27^+IgD^− memory B cells and CD19^+CD27^−IgD^+ […] was assessed by flow cytometry; purity was >90% for B cells, >65% for memory B cells, and >85% for naive B cells. All cell cultures were carried out in RPMI 1640 medium (Thermo Fisher Scientific) supplemented with 10% FCS, L-glutamine, and penicillin/streptomycin. Cells were incubated at 37° C. in a 5% CO2 atmosphere.\nCells were resuspended in PBS and labelled with Cell Proliferation Dye eFluor 450 (CPD) (eBioscience) at a final concentration of 10 μM at 37° C. for 10 min, kept on ice for 5 min, and washed twice with 10 mL of ice-cold RPMI 1640 10% FCS medium.\nB cells were stimulated to differentiate into plasmablasts using a two-phase cell culture protocol as previously described. Briefly, B cells were seeded at 4×10^5 cells/mL in 24-well plates and activated during 4 days with 50 ng/mL recombinant human soluble CD40L (R&D Systems), 2.5 μg/mL CpG oligodeoxynucleotide (ODN) 2006 (Amidogen or Cayla Invivogen), 2 μg/mL F(ab′)2 fragment goat anti-human IgA+IgG+IgM (H+L) polyclonal Abs (anti-BCR) (Jackson ImmunoResearch Laboratories), and 50 U/mL human IL-2 (SARL Pharmaxie or Novartis). Day 4-activated B cells were washed and cultured at the same concentration for three additional days in a fresh medium containing 50 U/mL human IL-2, 10 ng/mL human IL-4 (R&D Systems), and 10 ng/mL human IL-10 (R&D Systems) to induce B cell differentiation into plasmablasts. […]",
  "data": [
    {"smiles": "Cc1ccc(NC(=O)C2CN(c3nc(NCCCc4ccc(F)cc4)nc(NCCC(=O)O)n3)c3ccccc3O2)cc1Cl", "note": "(centres unmarked) [compound 005, 3-((4-(2-((3-chloro-4-methylphenyl)carbamoyl)-2,3-dihydro-4H-benzo[b][1,4]oxazin-4-yl)-6-((3-(4-fluorophenyl)propyl)amino)-1,3,5-triazin-2-yl)amino)propanoic acid]", "values": [
      {"measurement": "frequency of CD38+ B cells", "setting": "5 μM, day 4, mean±SD", "result": "30.5±25.6", "unit": "%"},
      {"measurement": "proliferating (CPD low) B cells", "setting": "5 μM, day 4, mean±SD", "result": "66.3±4.8", "unit": "%"},
      {"measurement": "frequency of CD38+ B cells", "setting": "5 μM, day 7", "result": "68.9±10.2", "unit": "%"},
      {"measurement": "relative proportion of CD27+ cells", "setting": "5 μM, day 7", "result": "54.3±15.9", "unit": "%"},
      {"measurement": "frequency of CD38+ B cells", "setting": "10 μM, day 4, mean±SD", "result": "23.9±18.3"},
      {"measurement": "proliferating (CPD low) B cells", "setting": "10 μM, day 4, mean±SD", "result": "46.7±18.3", "unit": "%"},
      {"measurement": "CD20loCD38hi plasmablasts generation, median percentage decrease", "setting": "10 μM, day 7", "result": 30.3, "unit": "%"},
      {"measurement": "frequency of CD38+ B cells", "setting": "10 μM, day 7", "result": "55.5±16.1"},
      {"measurement": "relative proportion of CD27+ cells", "setting": "10 μM, day 7", "result": "53.6±14.2", "unit": "%"},
      {"measurement": "expression of CD20 marker (CD20+ B cells)", "setting": "10 μM", "result": "81.7±12.4", "unit": "%"},
      {"measurement": "frequency of CD27+ cells", "setting": "15 μM", "result": "9.5±11.7", "unit": "%"},
      {"measurement": "frequency of CD38+ B cells", "setting": "15 μM, day 4, mean±SD", "result": "4.3±3.7", "unit": "%"},
      {"measurement": "proliferating (CPD low) B cells", "setting": "15 μM, day 4, mean±SD", "result": "34.9±19.2", "unit": "%"},
      {"measurement": "CD20loCD38hi plasmablasts generation, median percentage decrease", "setting": "15 μM, day 7", "result": 70.5, "unit": "%"},
      {"measurement": "frequency of CD38+ B cells", "setting": "15 μM, day 7", "result": "26.3±13.9", "unit": "%"},
      {"measurement": "expression of CD20 marker (CD20+ B cells)", "setting": "15 μM", "result": "85.4±11.7", "unit": "%"},
      {"measurement": "frequency of CD27+ cells", "setting": "20 μM", "result": "6.4±6.4"},
      {"measurement": "frequency of CD38+ B cells", "setting": "20 μM, day 4, mean±SD", "result": "2.5±2.2"},
      {"measurement": "proliferating (CPD low) B cells", "setting": "20 μM, day 4, mean±SD", "result": "20.4±19.0", "unit": "%"},
      {"measurement": "CD20loCD38hi plasmablasts generation, median percentage decrease", "setting": "20 μM, day 7", "result": 85.2, "unit": "%"},
      {"measurement": "frequency of CD38+ B cells", "setting": "20 μM, day 7", "result": "13.0±12.9"},
      {"measurement": "relative proportion of CD27+ cells", "setting": "20 μM, day 7", "result": "9.4±8.1", "unit": "%"},
      {"measurement": "frequencies of naïve B cells", "setting": "with the increase in concentration, day 7", "result": "significantly increased"}
    ]}
  ]
}
